Data reported in patent US20210300943A1, “OGA INHIBITOR COMPOUNDS” (Janssen Pharmaceutica NV, priority 2018, published 2021).

Experiments:
OGA = target: T1, OGA (Homo sapiens, UniProt O60502); assay: OGA cellular assay (ICC detection of O-GlcNAcylated proteins in HEK293 cells inducible for P301L mutant human Tau); format: cell-based; conditions: for Emax: HEK293, HEK293 cells inducible for P301L mutant human Tau; for Emax / Cellular Emax (%): maximal effect, Thiamet G 200 uM as maximum; for EC50 / Cellular Emax (%): HEK293 cells inducible for P301L mutant human Tau; for EC50: 6 hours incubation, read-out: Cellular hOGA, pEC50 (converted)
T1 construct: endogenous in cells; host or cells: HEK293 cells inducible for P301L mutant human Tau (2N4R)
T1 sequence (O60502 1-916): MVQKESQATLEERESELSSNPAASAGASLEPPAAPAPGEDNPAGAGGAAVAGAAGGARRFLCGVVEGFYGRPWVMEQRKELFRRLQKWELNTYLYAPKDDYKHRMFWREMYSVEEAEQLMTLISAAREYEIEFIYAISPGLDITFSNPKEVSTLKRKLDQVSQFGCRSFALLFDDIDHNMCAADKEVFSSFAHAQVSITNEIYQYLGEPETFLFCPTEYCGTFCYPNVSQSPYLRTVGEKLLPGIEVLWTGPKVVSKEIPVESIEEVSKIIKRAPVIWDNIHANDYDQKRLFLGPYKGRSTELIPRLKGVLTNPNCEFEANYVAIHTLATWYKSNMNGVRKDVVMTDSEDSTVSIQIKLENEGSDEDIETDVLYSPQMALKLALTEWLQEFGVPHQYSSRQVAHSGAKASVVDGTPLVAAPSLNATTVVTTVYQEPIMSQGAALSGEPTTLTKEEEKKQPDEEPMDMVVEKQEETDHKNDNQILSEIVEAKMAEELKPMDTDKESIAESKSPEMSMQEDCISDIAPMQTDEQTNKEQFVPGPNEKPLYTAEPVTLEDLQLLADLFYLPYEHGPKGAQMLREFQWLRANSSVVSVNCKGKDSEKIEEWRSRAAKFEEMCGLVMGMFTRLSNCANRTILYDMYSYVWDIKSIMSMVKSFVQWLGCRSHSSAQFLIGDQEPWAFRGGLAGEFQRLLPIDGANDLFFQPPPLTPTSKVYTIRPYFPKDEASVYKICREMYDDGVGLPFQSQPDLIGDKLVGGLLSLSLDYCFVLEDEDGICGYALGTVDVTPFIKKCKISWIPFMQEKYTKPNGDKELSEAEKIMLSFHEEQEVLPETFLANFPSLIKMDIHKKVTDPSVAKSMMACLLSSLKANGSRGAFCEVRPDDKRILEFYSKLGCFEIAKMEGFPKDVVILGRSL
Method: HEK293 cells inducible for P301L mutant human Tau (isoform 2N4R) were established at Janssen. Thiamet-G was used for both plate validation (high control) and as reference compound (reference EC50 assay validation). OGA inhibition is evaluated through the immunocytochemical (ICC) detection of O-GlcNAcylated proteins by the use of a monoclonal antibody (CTD110.6; Cell Signaling, #9875) detecting 0-GlcNAcylated residues as previously described (Dorfmueller et al. 2010 Chemistry & biology, 17:1250). Inhibition of OGA will result in an increase of O-GlcNAcylated protein levels resulting in an increased signal in the experiment. Cell nuclei are stained with Hoechst to give a cell culture quality control and a rough estimate of immediate compounds toxicity, if any. ICC pictures are imaged with a Perkin Elmer Opera Phenix plate microscope and quantified with the provided software Perkin Elmer Harmony 4.1.
Cells were propagated in DMEM high Glucose (Sigma, #D5796) following standard procedures. 2 days before the cell assay cells are split, counted and seeded in Poly-D-Lysine (PDL) coated 96-wells (Greiner, #655946) plate at a cell density of 12,000 cells per cm^2 (4,000 cells per well) in 100 μl of Assay Medium (Low Glucose medium is used to reduce basal levels of GlcNAcylation) (Park et al. 2014 The Journal of biological chemistry 289:13519). At the day of compound test medium from assay plates was removed and replenished with 90 μl of fresh Assay Medium. 10 μl of compounds at a 10 fold final concentration were added to the wells. Plates were centrifuged shortly before incubation in the cell incubator for 6 hours. DMSO concentration was set to 0.2%. Medium is discarded by applying vacuum. For staining of cells medium was removed and cells washed once with 100 μl D-PBS (Sigma, #D8537). From next step onwards unless other stated assay volume was always 50 μl and incubation was performed without agitation and at room temperature. Cells were fixed in 50 μl of a 4% paraformaldehyde (PFA, Alpha aesar, #043368) PBS solution for 15 minutes at room temperature. […] Before analysis samples were washed 2 times manually for 5 minutes in ICC base buffer.
Imaging is performed using Perkin Elmer Phenix Opera using a water 20× objective and recording 9 fields per well. Intensity readout at 488 nm is used as a measure of O-GlcNAcylation level of total proteins in wells. To assess potential toxicity of compounds nuclei were counted using the Hoechst staining. IC50-values are calculated using parametric non-linear regression model fitting. As a maximum inhibition Thiamet G at a 200 uM concentration is present on each plate. In addition, a concentration response of Thiamet G is calculated on each plate.

[1] = target: T2, recombinant human Meningioma Expressed Antigen 5 (MGEA5), also referred to as O-GlcNAcase (OGA) (Homo sapiens, UniProt O60502); assay: OGA biochemical assay (inhibition of FM-GlcNAc hydrolysis, fluorescence); conditions: for Emax / Enzymatic Emax (%): maximal effect; for Emax: read-out: Enzymatic Emax (%); for IC50: read-out: Enzymatic hOGA, pIC50 (converted)
T2 construct: Full length OGA enzyme was purchased at OnGene (cat #TP322411); purchased OnGene (so in the source)
T2 sequence (O60502 1-916): T1 sequence (O60502 1-916)
From the text: The assay is based on the inhibition of the hydrolysis of fluorescein mono-β-D-N-Acetyl-Glucosamine (FM-GlcNAc) (Mariappa et al. 2015, Biochem J 470:255) by the recombinant human Meningioma Expressed Antigen 5 (MGEA5), also referred to as O-GlcNAcase (OGA). The hydrolysis FM-GlcNAc (Marker Gene technologies, cat #M1485) results in the formation of β-D-N-glucosamineacetate and fluorescein. The fluorescence of the latter can be measured at excitation wavelength 485 nm and emission wavelength 538 nm. An increase in enzyme activity results in an increase in fluorescence signal. Full length OGA enzyme was purchased at OnGene (cat #TP322411). The enzyme was stored in 25 mM Tris.HCl, pH 7.3, 100 mM glycine, 10% glycerol at −20° C. Thiamet G and GlcNAcStatin were tested as reference compounds (Yuzwa et al. 2008 Nature Chemical Biology 4:483; Yuzwa et al. 2012 Nature Chemical Biology 8:393). The assay was performed in 200 mM Citrate/phosphate buffer supplemented with 0.005% Tween-20. 35.6 g Na2HPO42H2O (Sigma, #C0759) were dissolved in 1 L water to obtain a 200 mM solution. 19.2 g citric acid (Merck, #1.06580) was dissolved in 1 L water to obtain a 100 mM solution. pH of the sodiumphosphate solution was adjusted with the citric acid solution to 7.2. The buffer to stop the reaction consists of a 500 mM Carbonate buffer, pH 11.0. 734 mg FM-GlcNAc were dissolved in 5.48 mL DMSO to obtain a 250 mM solution and was stored at −20° C. OGA was used at a 2 nM concentration and FM-GlcNAc at a 100 uM final concentration. Dilutions were prepared in assay buffer.
50 nl of a compound dissolved in DMSO was dispensed on Black Proxiplate TM 384 Plus Assay plates (Perkin Elmer, #6008269) and 3 μl fl-OGA enzyme mix added subsequently. Plates were pre-incubated for 60 min at room temperature and then 2 μl FM-GlcNAc substrate mix added. […] Plates were briefly centrifuged for 1 min at 1000 rpm and incubate at room temperature for 6 h. To stop the reaction 5 μl STOP buffer were added and plates centrifuge again 1 min at 1000 rpm. Fluorescence was quantified in the Thermo Scientific Fluoroskan Ascent or the PerkinElmer EnVision with excitation wavelength 485 nm and emission wavelength 538 nm.
For analysis a best-fit curve is fitted by a minimum sum of squares method. From this an IC50 value and Hill coefficient was obtained. High control (no inhibitor) and low control (saturating concentrations of standard inhibitor) were used to define the minimum and maximum values.

SMILES	Emax (OGA)	EC50 (OGA)	Emax [1]	IC50 [1]	Enzymatic Emax (%) [1]	Cellular Emax (%) (OGA)
Cc1cc(OC[C@@H]2CCCN([C@@H](C)c3ccc4c(n3)OCCO4)C2)cc(C)n1 (relative stereo) [Product 108]	-8%	> 1000 nM	37%	> 10000 nM	–	–
COc1cc(NC[C@H]2CCCN(C(C)c3ccc4c(n3)OCCO4)C2)cc(C)n1 (single isomer, unassigned) [Product 26]	85%	5.01 nM	–	2.51 nM	101%	–
Cc1cc(C[C@H]2CCCN(C(C)c3cc4c(cc3F)OCCO4)C2)cc(C)n1 (single isomer, unassigned) [Product 42]	86%	6.31 nM	99%	2 nM	–	–
Cc1cc(C[C@H]2CCCN([C@@H](C)c3ccc4c(n3)OCCO4)C2)cc(C)n1 (single isomer, unassigned) [Product 46]	90%	15.8 nM	101%	3.16 nM	–	–
Cc1cc(C[C@H]2CCCN(C(C)c3cnc4c(c3)OCCO4)C2)cc(C)n1 (single isomer, unassigned) [Product 132]	77%	79.4 nM	103%	5.01 nM	–	–
Cc1cc([C@H]2CCCN(C(C)c3ccc4c(n3)OCCO4)C2)cc(C)n1 (single isomer, unassigned) [Product 149]	93%	31.6 nM	100%	10 nM	–	–
Cc1cc(OC[C@H]2CCCN(C(C)c3nc4c(cc3F)OCCO4)C2)cc(C)n1 (single isomer, unassigned) [Product 156]	–	316 nM	–	251 nM	97%	55%
Cc1cc(OC[C@H]2CCCN(C(C)c3ccc4c(n3)OCCO4)C2)nc(C)n1 (single isomer, unassigned) [Product 163]	–	45.7 nM	–	7.94 nM	100%	82%

The remaining lines, values ahead:

Emax (OGA)	EC50 (OGA)	Emax [1]	IC50 [1]	Enzymatic Emax (%) [1]	Cellular Emax (%) (OGA)	SMILES
37%	> 1000 nM	95%	251 nM	–	–	Cc1cc(OC[C@@H]2CCCN([C@H](C)c3ccc4c(n3)OCCO4)C2)cc(C)n1 (relative stereo) [Product 109]
83%	31.6 nM	102%	2.51 nM	–	–	Cc1cc(NCC2CCCN(C(C)c3ccc4c(n3)OCCO4)C2)cc(C(F)(F)F)n1 (single isomer, unassigned) [Product 33]
92%	6.31 nM	–	1.26 nM	104%	–	Cc1cc(C[C@H]2CCCN(C(C)c3cnc4c(c3)OCCN4)C2)cc(C)n1 (single isomer, unassigned) [Product 52]
88%	20 nM	98%	7.94 nM	–	–	Cc1cc(OC[C@H]2CCCN(C(C)c3ccc4c(n3)OCCO4)C2)cc(C)n1 (single isomer, unassigned) [Product 139]
2%	> 1000 nM	72%	3980 nM	–	–	Cc1cc(OC[C@H]2CCCN([C@@H](C)c3ccc4c(n3)OCCO4)C2)cc(C)n1 (single isomer, unassigned) [Product 140]
3%	> 1000 nM	92%	2000 nM	–	–	Cc1cc([C@@H]2CCCN(C(C)c3ccc4c(n3)OCCO4)C2)cc(C)n1 (single isomer, unassigned) [Product 150]
89%	39.8 nM	102%	7.94 nM	–	–	Cc1cc([C@H]2CCCN([C@H](C)c3ccc4c(n3)OCCO4)C2)cc(C)n1 (single isomer, unassigned) [Product 158]
0%	> 1000 nM	91%	1260 nM	–	–	Cc1cc([C@H]2CCCN([C@@H](C)c3ccc4c(n3)OCCO4)C2)cc(C)n1 (single isomer, unassigned) [Product 159]
5%	> 1000 nM	89%	2000 nM	–	–	Cc1cc([C@@H]2CCCN([C@H](C)c3ccc4c(n3)OCCO4)C2)cc(C)n1 (single isomer, unassigned) [Product 160]
-4%	> 1000 nM	79%	3160 nM	–	–	Cc1cc([C@@H]2CCCN([C@@H](C)c3ccc4c(n3)OCCO4)C2)cc(C)n1 (single isomer, unassigned) [Product 161]
–	> 1000 nM	93%	794 nM	–	3%	Cc1cc(OC[C@H]2CCCN(C(C)c3ccc4c(n3)OCCO4)C2)nc(C)n1 (single isomer, unassigned) [Product 162]
